# pIC50: −log10 of the molar value.
# Biological target: T1, NLRP3 inflammasome (Homo sapiens, UniProt Q96P20)
# T1 construct: endogenous in cells; host or cells: THP-1 monocytic cells
# Experiment: IL-1β secretion assay (NLRP3 IC50) in LPS-primed, nigericin-activated THP-1 cells, HTRF
# Assay type: cell-based
# Conditions: monocytic THP-1 cells; LPS 10 ng/mL 3 h priming, then compound + nigericin 10 μM 2 h; relative IC50, 10 concentrations, geometric mean
# Method in brief: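 IL-1β in supernatant read by HTRF after 2 h co-incubation of compound (0.1% DMSO, 10 concentrations, 1:3 series) with nigericin at 10 μM final, following 3 h LPS (10 ng/mL) priming of THP-1 monocytes at 37° C. Inhibition normalised to unactivated and no-compound controls; geometric-mean relative IC50 from 4-parameter logistic model.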
# T1 sequence (Q96P20 whole entry): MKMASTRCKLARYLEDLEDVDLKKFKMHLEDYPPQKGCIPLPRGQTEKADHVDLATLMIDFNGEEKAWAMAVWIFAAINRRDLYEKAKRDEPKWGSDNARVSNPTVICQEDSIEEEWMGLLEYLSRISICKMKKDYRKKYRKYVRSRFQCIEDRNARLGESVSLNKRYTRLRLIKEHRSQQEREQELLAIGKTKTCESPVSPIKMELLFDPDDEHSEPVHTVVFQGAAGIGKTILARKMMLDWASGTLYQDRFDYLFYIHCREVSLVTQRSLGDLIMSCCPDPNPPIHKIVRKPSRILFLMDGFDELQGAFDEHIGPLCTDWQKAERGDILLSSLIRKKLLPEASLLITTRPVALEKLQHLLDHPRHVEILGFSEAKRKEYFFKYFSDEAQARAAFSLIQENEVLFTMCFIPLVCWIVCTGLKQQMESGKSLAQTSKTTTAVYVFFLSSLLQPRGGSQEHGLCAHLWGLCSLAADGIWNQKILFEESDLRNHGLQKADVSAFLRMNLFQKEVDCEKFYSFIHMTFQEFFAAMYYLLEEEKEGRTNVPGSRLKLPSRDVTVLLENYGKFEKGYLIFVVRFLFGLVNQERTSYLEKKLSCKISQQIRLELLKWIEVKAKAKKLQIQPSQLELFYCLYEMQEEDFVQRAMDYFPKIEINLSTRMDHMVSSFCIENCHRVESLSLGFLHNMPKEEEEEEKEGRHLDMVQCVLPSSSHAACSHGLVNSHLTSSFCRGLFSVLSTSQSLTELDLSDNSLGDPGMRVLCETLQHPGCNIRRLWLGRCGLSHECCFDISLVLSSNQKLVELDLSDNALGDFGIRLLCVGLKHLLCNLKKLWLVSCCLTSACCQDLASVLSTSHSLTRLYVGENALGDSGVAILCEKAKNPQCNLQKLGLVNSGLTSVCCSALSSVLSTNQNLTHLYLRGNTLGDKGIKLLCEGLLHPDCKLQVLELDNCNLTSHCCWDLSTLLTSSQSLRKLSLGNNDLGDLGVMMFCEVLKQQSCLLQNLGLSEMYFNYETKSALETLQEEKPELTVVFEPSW
row,Structure (SMILES),pIC50
1,"Cc1cc(C)c(-c2ccc(N3CCC[C@@H](N(C)C)C3)nn2)c(O)c1 [Example 148, 2-[6-[(3R)-3-(dimethylamino)-1-piperidyl]pyridazin-3-yl]-3,5-dimethyl-phenol]",6.04
2,"Cc1cc(C)c(O)c(-c2ccc(N3CCO[C@H](CO)C3)nn2)c1 [Example 152, 2-[6-[(2S)-2-(hydroxymethyl)morpholin-4-yl]pyridazin-3-yl]-4,6-dimethylphenol]",5.22
3,"CNC(=O)[C@@H]1CN(c2ccc(-c3c(C)cc(C)cc3O)nn2)CCO1 [Example 166, (2S)-4-[6-(2-hydroxy-4,6-dimethylphenyl)pyridazin-3-yl]-N-methylmorpholine-2-carboxamide]",5.48
4,"CCN1CCO[C@@H]2CN(c3ccc(-c4c(C)cc(C)cc4O)nn3)C[C@H]21 [Example 168, 2-[6-[(4aR,7aR)-4-ethyl-2,3,4a,5,7,7a-hexahydropyrrolo[3,4-b][1,4]oxazin-6-yl]pyridazin-3-yl]-3,5-dimethylphenol]",5.47
5,"Cc1cc(C)c(-c2ccc(N3C[C@H](O)CO3)nn2)c(O)c1 [Example 179, (4S)-2-[6-(2-hydroxy-4,6-dimethyl-phenyl)pyridazin-3-yl]isoxazolidin-4-ol]",6.05
6,"Cc1cc(C)c(-c2ccc(N3CCO[C@H](C(N)=O)C3)nn2)c(O)c1 [Example 181, (2S)-4-[6-(2-hydroxy-4,6-dimethylphenyl)pyridazin-3-yl]morpholine-2-carboxamide]",5.86
7,"CNC(=O)[C@H]1CN(c2ccc(-c3c(C)cc(C)cc3O)nn2)CCO1 [Example 182, (2R)-4-[6-(2-hydroxy-4,6-dimethylphenyl)pyridazin-3-yl]-N-methylmorpholine-2-carboxamide]",5.78
8,"Cc1cc(C)c(-c2ccc(N3CCO[C@@H](C(N)=O)C3)nn2)c(O)c1 [Example 183, (2R)-4-[6-(2-hydroxy-4,6-dimethylphenyl)pyridazin-3-yl]morpholine-2-carboxamide]",6.16
9,"Cc1cc(C)c(-c2ccc(N3CCO[C@@H](C(=O)N(C)C)C3)nn2)c(O)c1 [Example 184, (2R)-4-[6-(2-hydroxy-4,6-dimethylphenyl)pyridazin-3-yl]-N,N-dimethylmorpholine-2-carboxamide]",6.18
10,"Cc1cc(C)c(-c2ccc(N3C[C@@H]4NCCO[C@H]4C3)nn2)c(O)c1 [Example 185, 2-[6-[(4aS,7aS)-3,4,4a,5,7,7a-hexahydro-2H-pyrrolo[3,4-b][1,4]oxazin-6-yl]pyridazin-3-yl]-3,5-dimethylphenol]",5.49
11,"Cc1cc(C)c(-c2nnc(N3CCO[C@H](CO)C3)cc2CO)c(O)c1 [Example 186, 2-[4-(hydroxymethyl)-6-[(2S)-2-(hydroxymethyl)morpholin-4-yl]pyridazin-3-yl]-3,5-dimethyl-phenol]",5.98
12,"Cc1ccc(O)c(-c2ccc(N3CCO[C@H](CO)C3)nn2)c1C [Example 191, 2-[6-[(2S)-2-(hydroxymethyl)morpholin-4-yl]pyridazin-3-yl]-3,4-dimethylphenol]",5.95
13,"CCN1CCOCC2(C1)CN(c1ccc(-c3c(C)cc(C)cc3O)nn1)CCO2 (stereo not shown) [Example 208, 2-[6-(8-ethyl-1,11-dioxa-4,8-diazaspiro[5.6]dodecan-4-yl)pyridazin-3-yl]-3,5-dimethylphenol]",6.01
14,"Cc1cc(C)c(-c2ccc(N3CCOc4cnccc43)nn2)c(O)c1 [Example 215, 2-[6-(2,3-dihydropyrido[3,4-b][1,4]oxazin-1-yl)pyridazin-3-yl]-3,5-dimethyl-phenol]",5.84
15,"CCN1CCN(c2ccc(-c3c(C)cc(C)cc3O)nn2)CC12CCOC2 (stereo not shown) [Example 227, 2-[6-(6-ethyl-2-oxa-6,9-diazaspiro[4.5]decan-9-yl)pyridazin-3-yl]-3,5-dimethylphenol]",5.92
16,"Cc1cc(C)c(-c2ccc(N3CCCc4c3ccnc4O)nn2)c(O)c1 [Example 242, 1-[6-(2-hydroxy-4,6-dimethyl-phenyl)pyridazin-3-yl]-3,4-dihydro-2H-1,6-naphthyridin-5-ol]",5.67
17,"Cc1cc(C)c(-c2ccc(N3CCc4cccc(O)c43)nn2)c(O)c1 [Example 253, 1-[6-(2-hydroxy-4,6-dimethyl-phenyl)pyridazin-3-yl]indolin-7-ol]",5.17
18,"Cc1cc(C(F)(F)F)cc(O)c1-c1ccc(N2CC[C@H](O)CC2=O)nn1 [Example 286, (4S)-4-hydroxy-1-[6-[2-hydroxy-6-methyl-4-(trifluoromethyl)phenyl]pyridazin-3-yl]piperidin-2-one]",6.82
19,"Cc1cc(C(F)(F)F)cc(O)c1-c1ccc(N2CC[C@@H](CO)CC2=O)nn1 [Example 292, (4R)-4-(hydroxymethyl)-1-[6-[2-hydroxy-6-methyl-4-(trifluoromethyl)phenyl]pyridazin-3-yl]piperidin-2-one]",6.58
20,"Cc1cc(C)c(-c2ccc(N3CCO[C@H](CS)C3)nn2)c(O)c1 [Example 303, 3,5-dimethyl-2-[6-[(2S)-2-(sulfanylmethyl)morpholin-4-yl]pyridazin-3-yl]phenol]",5.41
21,"Cc1cc(C)c(-c2ccc(N3CCO[C@@H](CS)C3)nn2)c(O)c1 [Example 305, 3,5-dimethyl-2-[6-[(2R)-2-(sulfanylmethyl)morpholin-4-yl]pyridazin-3-yl]phenol]",5.55
22,"Cc1ccc(-c2nnc(N3CCO[C@H]4CCN(C)C[C@H]43)cc2C(F)F)c(O)c1 [Example 306, 2-[6-[(4aR,8aS)-6-methyl-3,4a,5,7,8,8a-hexahydro-2H-pyrido[4,3-b][1,4]oxazin-4-yl]-4-(difluoromethyl)pyridazin-3-yl]-5-methyl-phenol]",5.82
23,"Cc1cc(Cl)cc(O)c1-c1ccc(N2CCO[C@@H]3CCNC[C@@H]32)nn1 [Example 309, 2-[6-[(4aS,8aR)-2,3,4a,5,6,7,8,8a-octahydropyrido[4,3-b][1,4]oxazin-4-yl]pyridazin-3-yl]-5-chloro-3-methyl-phenol]",6.60
24,"Cc1cc(C)c(-c2ccc(N3CCO[C@H]4CCN(C)C[C@H]43)nn2)c(O)c1 [Example 310, 2-[6-[(4aR,8aS)-6-methyl-3,4a,5,7,8,8a-hexahydro-2H-pyrido[4,3-b][1,4]oxazin-4-yl]pyridazin-3-yl]-3,5-dimethyl-phenol]",6.30
25,"Cc1cc(C)c(-c2ccc(N3CCO[C@@H]4CCNC[C@@H]43)nn2)c(O)c1 [Example 315, 2-[6-[(4aS,8aR)-2,3,4a,5,6,7,8,8a-octahydropyrido[4,3-b][1,4]oxazin-4-yl]pyridazin-3-yl]-3,5-dimethyl-phenol]",6.29
26,"Cc1cc(C(F)(F)F)cc(O)c1-c1ccc(N2CC[C@@H](O)CC2=O)nn1 [Example 316, (4R)-4-hydroxy-1-[6-[2-hydroxy-6-methyl-4-(trifluoromethyl)phenyl]pyridazin-3-yl]piperidin-2-one]",6.54
27,"CCN1CCOC2(COCCN(c3ccc(-c4c(C)cc(C)cc4O)nn3)C2)C1 (stereo not shown) [Example 317, 2-[6-(4-ethyl-1,11-dioxa-4,8-diazaspiro[5.6]dodecan-8-yl)pyridazin-3-yl]-3,5-dimethyl-phenol]",5.52
28,"Cc1cc(Cl)cc(O)c1-c1ccc(N2CCO[C@H](CF)C2)nn1 [Example 339, 5-chloro-2-[6-[(2S)-2-(fluoromethyl)morpholin-4-yl]pyridazin-3-yl]-3-methyl-phenol]",6.88

# From US20240360151A1 (SANOFI, priority 2023, published 2024)
